In patent US20210214375A1 (LUNDBECK LA JOLLA RESEARCH CENTER, INC., priority 2017, published 2021):

What was measured:
MGLL = molecular target: T1, MGLL (Mus musculus, UniProt O35678); assay: In vitro competitive activity-based protein profiling, mouse brain proteome; format: biochemical
T1 construct: Brain; from tissue; host or cells: mouse brain proteome
T1 sequence (O35678 1-303): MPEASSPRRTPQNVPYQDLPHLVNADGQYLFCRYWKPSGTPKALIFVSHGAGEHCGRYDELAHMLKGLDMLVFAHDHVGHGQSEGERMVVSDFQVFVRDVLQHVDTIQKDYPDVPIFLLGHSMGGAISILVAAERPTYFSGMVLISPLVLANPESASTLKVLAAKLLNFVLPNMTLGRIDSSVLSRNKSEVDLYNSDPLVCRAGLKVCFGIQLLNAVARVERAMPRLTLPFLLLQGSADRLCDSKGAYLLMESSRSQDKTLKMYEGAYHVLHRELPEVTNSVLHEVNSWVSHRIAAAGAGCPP
Description: [Worded in the source for another species; this species is reported under the same test.] (§1) Proteomes (human prefrontal cortex or cell membrane fractions) (50 μL, 1.0 mg/mL total protein concentration) were preincubated with varying concentrations of inhibitors at 37° C. After 30 min, FP—Rh or HT-01 (1.0 μL, 50 μM in DMSO) was added and the mixture was incubated for another 30 min at room temperature. Reactions were quenched with SDS loading buffer (15 μL-4×) and run on SDS-PAGE.

ABHD6 = molecular target: T2, ABHD6 (Mus musculus, UniProt Q8R2Y0); assay: In vitro competitive activity-based protein profiling, mouse brain proteome, ABHD6; format: biochemical; conditions: for IC50: mouse
T2 construct: Brain; from tissue; host or cells: mouse brain proteome
T2 sequence (Q8R2Y0 1-336): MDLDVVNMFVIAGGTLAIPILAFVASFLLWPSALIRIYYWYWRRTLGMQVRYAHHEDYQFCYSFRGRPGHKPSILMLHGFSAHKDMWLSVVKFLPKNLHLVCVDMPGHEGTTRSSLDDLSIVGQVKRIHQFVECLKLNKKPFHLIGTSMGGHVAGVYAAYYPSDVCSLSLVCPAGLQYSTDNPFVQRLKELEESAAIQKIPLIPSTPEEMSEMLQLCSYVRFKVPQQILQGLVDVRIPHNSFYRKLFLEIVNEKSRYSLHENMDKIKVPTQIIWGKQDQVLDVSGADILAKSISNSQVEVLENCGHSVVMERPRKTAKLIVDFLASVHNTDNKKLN
Description: [Worded in the source for another target; this target is reported under the same test.] as §1

SMILES	IC50 (MGLL)	IC50 (ABHD6)	% Inh MGLL Brain (Mouse, μM) (MGLL)	% Inh ABHD6 Brain (Mouse, μM) (ABHD6; mouse brain proteome)
O=C(OC(C(F)(F)F)C(F)(F)F)N1CC2(CCN(Cc3ccc(C(F)(F)F)cc3N3CCOCC3)CC2)C1 [Example 40, 1,1,1,3,3,3-Hexafluoropropan-2-yl 7-(2-morpholino-4-(trifluoromethyl)benzyl)-2,7-diazaspiro[3.5]nonane-2-carboxylate]	< 100 nM	< 100 nM		
O=C(OC(C(F)(F)F)C(F)(F)F)N1CCC2(CC1)CN(Cc1c(Cl)cccc1N1CCCC1)C2 [Example 42, 1,1,1,3,3,3-Hexafluoropropan-2-yl 2-(2-chloro-6-(pyrrolidin-1-yl)benzyl)-2,7-diazaspiro[3.5]nonane-7-carboxylate]	< 100 nM	100 to 1000 nM		
O=C(OC(C(F)(F)F)C(F)(F)F)N1CCC2(CC1)CN(Cc1c(N3CCOCC3)cccc1C(F)(F)F)C2 [Example 43, 1,1,1,3,3,3-Hexafluoropropan-2-yl 2-(2-morpholino-6-(trifluoromethyl)benzyl)-2,7-diazaspiro[3.5]nonane-7-carboxylate]	< 100 nM	100 to 1000 nM		
O=C(OC(C(F)(F)F)C(F)(F)F)N1CCC2(CC1)CN(Cc1c(Cl)cccc1N1CCC(F)CC1)C2 [Example 47, 1,1,1,3,3,3-Hexafluoropropan-2-yl 2-(2-chloro-6-(4-fluoropiperidin-1-yl)benzyl)-2,7-diazaspiro[3.5]nonane-7-carboxylate]	< 100 nM	< 100 nM		
O=C(OC(C(F)(F)F)C(F)(F)F)N1CCC2(CC1)CN(Cc1c(Cl)cccc1N1CCC3(CCOCC3)C1)C2 [Example 48, 1,1,1,3,3,3-Hexafluoropropan-2-yl 2-(2-chloro-6-(8-oxa-2-azaspiro[4.5]decan-2-yl)benzyl)-2,7-diazaspiro[3.5]nonane-7-carboxylate]	< 100 nM	< 100 nM		
O=C(O)C1CCN(c2ccc(CN3CCC4(CC3)CN(C(=O)OC(C(F)(F)F)C(F)(F)F)C4)cc2)CC1 [Example 66, 1-(4-((2-(((1,1,1,3,3,3-Hexafluoropropan-2-yl)oxy)carbonyl)-2,7-diazaspiro[3.5]nonan-7-yl)methyl)phenyl) piperidine-4-carboxylic acid]			## (## is between 25 and 75%)	### (### is ≥ 75%)
O=C(OC(C(F)(F)F)C(F)(F)F)N1CCC2(CC1)CN(Cc1ccc(Cl)c(Cl)c1)C2 [Example 67, 1,1,1,3,3,3-Hexafluoropropan-2-yl 2-(3,4-dichlorobenzyl)-2,7-diazaspiro[3.5]nonane-7-carboxylate]	< 100 nM	< 100 nM		
O=C(OC(C(F)(F)F)C(F)(F)F)N1CCC2(CC1)CN(Cc1cccc(Oc3ccccc3)c1)C2 [Example 78, 1,1,1,3,3,3-Hexafluoropropan-2-yl 2-(3-phenoxybenzyl)-2,7-diazaspiro[3.5]nonane-7-carboxylate]	< 100 nM	< 100 nM		
O=C(OC(C(F)(F)F)C(F)(F)F)N1CCC2(CC1)CN(Cc1ccc(N3CCCC3)cc1)C2 [Example 80, 1,1,1,3,3,3-Hexafluoropropan-2-yl 2-(4-(pyrrolidin-1-yl)benzyl)-2,7-diazaspiro[3.5]nonane-7-carboxylate]	< 100 nM	> 1000 nM		
O=C(OC(C(F)(F)F)C(F)(F)F)N1CCC2(CCCN2C(=O)c2ccc(C(F)(F)F)cc2)CC1 [Example 83, 1,1,1,3,3,3-Hexafluoropropan-2-yl 1-(4-(trifluoromethyl)benzoyl)-1,8-diazaspiro[4.5]decane-8-carboxylate]	< 100 nM	100 to 1000 nM		
Cc1cccc(CN2CC3(CCN(C(=O)OC(C(F)(F)F)C(F)(F)F)CC3)C2)c1 [Example 86, 1,1,1,3,3,3-Hexafluoropropan-2-yl 2-(3-methylbenzyl)-2,7-diazaspiro[3.5]nonane-7-carboxylate]	< 100 nM	< 100 nM		
O=C(OC(C(F)(F)F)C(F)(F)F)N1CCC2(CC1)CN(Cc1cccc(C(F)(F)F)c1)C2 [Example 89, 1,1,1,3,3,3-Hexafluoropropan-2-yl 2-(3-(trifluoromethyl)benzyl)-2,7-diazaspiro[3.5]nonane-7-carboxylate]	< 100 nM	< 100 nM		
O=C(OC(C(F)(F)F)C(F)(F)F)N1CC2(CCN(Cc3c(N4CCCC4)cccc3C(F)(F)F)CC2)C1 [Example 148, 1,1,1,3,3,3-Hexafluoropropan-2-yl 7-(2-(pynrolidin-1-yl)-4-(trifluoromethyl)benzyl)-2,7-diazaspiro[3.5]nonane-2-carboxylate]	100 to 1000 nM	100 to 1000 nM		
CC(=O)N1CCCc2cccc(CN3CCC4(CC3)CN(C(=O)OC(C(F)(F)F)C(F)(F)F)C4)c21 [Example 152, 1,1,1,3,3,3-Hexafluoropropan-2-yl 7-((1-acetyl-1,2,3,4-tetrahydroquinolin-8-yl)methyl)-2,7-diazaspiro[3.5]nonane-2-carboxylate]	< 100 nM	< 100 nM		
CN1CC2(CCN(c3cc(Cl)ccc3CN3CCN(C(=O)OC(C(F)(F)F)C(F)(F)F)CC3)C2)C1 [Example 169, 1,1,1,3,3,3-Hexafluoropropan-2-yl 4-(4-chloro-2-(2-methyl-2,6-diazaspiro[3.4]octan-6-yl)benzyl)piperazine-1-carboxylate]	100 to 1000 nM	> 1000 nM		
CCN1CCC2(CCN(c3cc(Cl)ccc3CN3CCN(C(=O)OC(C(F)(F)F)C(F)(F)F)CC3)CC2)C1 [Example 170, 1,1,1,3,3,3-Hexafluoropropan-2-yl 4-(4-chloro-2-(2-ethyl-2,8-diazaspiro[4.5]decan-8-yl)benzyl)piperazine-1-carboxylate]	100 to 1000 nM	> 1000 nM		
CCN1CC2(CCN(c3cc(Cl)ccc3CN3CCN(C(=O)OC(C(F)(F)F)C(F)(F)F)CC3)C2)C1 [Example 173, 1,1,1,3,3,3-Hexafluoropropan-2-yl 4-(4-chloro-2-(2-ethyl-2,6-diazaspiro[3.4]octan-6-yl)benzyl)piperazine-1-carboxylate]	100 to 1000 nM	> 1000 nM		
O=C(OC(C(F)(F)F)C(F)(F)F)N1CCC2(CCN(Cc3ccc(C(F)(F)F)cc3N3CC4COCC4C3)CC2)C1 (stereo not drawn) [Example 188, 1,1,1,3,3,3-Hexafluoropropan-2-yl 8-(2-(tetrahydro-1H-furo[3,4-c]pyrrol-5(3H)-yl)-4-(trifluoromethyl)benzyl)-2,8-diazaspiro[4.5]decane-2-carboxylate]	100 to 1000 nM	> 1000 nM		
CC(=O)N1CCCc2cccc(CN3CCC4(CC3)CCN(C(=O)OC(C(F)(F)F)C(F)(F)F)C4)c21 [Example 193, 1,1,1,3,3,3-Hexafluoropropan-2-yl 8-((1-acetyl-1,2,3,4-tetrahydroquinolin-8-yl)methyl)-2,8-diazaspiro[4.5]decane-2-carboxylate]	> 1000 nM	> 1000 nM		
CC(=O)N1CC2CN(c3cc(C(F)(F)F)ccc3CN3CCN(C(=O)OC(C(F)(F)F)C(F)(F)F)CC3)CC2C1 (stereo not drawn) [Example 200, 1,1,1,3,3,3-Hexafluoropropan-2-yl 4-(2-(5-acetylhexahydropyrrolo[3,4-c]pyrrol-2(1H)-yl)-4-(trifluoromethyl)benzyl)piperazine-1-carboxylate]	< 100 nM	> 1000 nM		
CS(=O)(=O)N1CC2CN(c3cc(C(F)(F)F)ccc3CN3CCN(C(=O)OC(C(F)(F)F)C(F)(F)F)CC3)CC2C1 (stereo not drawn) [Example 201, 1,1,1,3,3,3-Hexafluoropropan-2-yl 4-(2-(5-(methylsulfonyl)hexahydropyrrolo[3,4-c]pyrrol-2(1H)-yl)-4-(trifluoromethyl)benzyl)piperazine-1-carboxylate]	< 100 nM	> 1000 nM		
